Test results taken from EP0625155B1, “PYRROLOIMIDAZOLYL AND IMIDAZOPYRIDINYL SUBSTITUTED 1H-BENZIMIDAZOLE DERIVATIVES AS AROMATASE INHIBITORS” (JANSSEN PHARMACEUTICA N.V., priority 1992, dated 1993).

Experiments:
Plasma estradiol = test: Estradiol production in PMSG-injected rats; parameters: species or system Female Wistar rats; conditions: Rattus norvegicus; 1 mg/kg by gavage three days after 200 I.U. PMSG s.c.; plasma 2 h after administration; % non-recovered relative to untreated controls; read-out: Estradiol in vivo (% inhibition) 1 mg/kg / 2h
Protocol: Female Wistar rats weighing 150 g were injected with 200 I.U. Pregnant Mare's Serum Gonadotropin (PMSG) (Folligon®) subcutaneously. Three days later 1 mg/kg of the test compound, dissolved in 20% polyethyleneglycol in water, was administered by gavage. Control animals received 20% polyethyleneglycol only. Two hours after drug or placebo administration the animals were killed by decapitation and trunk blood was collected in heparinized tubes. Plasma estradiol was measured using a direct fluorescence immunoassay.

Plasma testosterone = test: Testosterone production in LHRH/ACTH-injected rats; parameters: species or system Adult male Wistar rats; conditions: Rattus norvegicus, po; 10 mg/kg orally by gavage; LHRH/ACTH injected 1 h later; plasma 2 h after stimulation; % non-recovered relative to untreated controls; read-out: Testosterone in vivo (% inhibition) 10 mg/kg / 2h
Protocol: (§1) Adult male Wistar rats weighing 250 g were starved 24 h before the start of the experiment. Between 8 and 9 a.m. 10 mg/kg of the test compounds were administered orally by gavage. One hour later, the animals were injected intramuscularly with 40 ng of Luteinizing Hormone Releasing Hormone (LHRH) (Receptal®) and 25 µg of Adrenocorticotropic Hormone (ACTH1-24) (Cortrosyn®). To avoid stress, the animals were also anesthetized with 7.5 mg of pentobarbital. Two hours after stimulation, the animals were killed by decapitation and trunk blood was collected in heparinized tubes. […] Corticosterone was measured using radio immunoassay with ^3H-labelled corticosterone and dextrane-coated charcoal to separate bound and free steroid.

Corticosterone = Corticosterone production in LHRH/ACTH-injected rats; parameters: species or system Adult male Wistar rats; conditions: Rattus norvegicus, po; 10 mg/kg orally by gavage; LHRH/ACTH injected 1 h later; plasma 2 h after stimulation; % non-recovered relative to untreated controls; read-out: Corticosterone in vivo (% inhibition) 10 mg/kg / 2h
Protocol: as §1

Structure (SMILES)	inhibition at 1 mg/kg (Plasma estradiol) [%]	inhibition at 10 mg/kg (Plasma testosterone) [%]	inhibition at 10 mg/kg (Corticosterone) [%]
c1ccc(-c2nc3cc(C4CCc5cncn54)ccc3[nH]2)cc1 (racemic) [compound 43]	54	64	20
CCCCn1c(O)nc2ccc(C3CCc4cncn43)cc21 (racemic) [compound 48, (±)-1-butyl-6-(6,7-dihydro-5H-pyrrolo[1,2-c]imidazol-5-yl)-1H-benzimidazol-2-ol]	77	93	4
CCCCCCn1cnc2ccc(C3CCc4cncn43)cc21 (racemic) [compound 32]	65	67	37
CCCCCn1cnc2ccc(C3CCc4cncn43)cc21 (racemic) [compound 31]	69	91	28
c1nc2cc(C3CCc4cncn43)ccc2[nH]1 (racemic) [compound 46]	77	78	23
c1ccc(-n2cnc3ccc(C4CCc5cncn54)cc32)cc1 (racemic) [compound 37]	31	96	22
Cc1nc2cc(C3CCc4cncn43)ccc2[nH]1 (racemic) [compound 47, (±)-5-(6,7-dihydro-5H-pyrrolo-[1,2-c]imidazol-5-yl)-2-methyl-1H-benzimidazole]	72	85	4
CCCCn1cnc2ccc(C3CCc4cncn43)cc21 (racemic) [compound 22]	91	92.5	35
Cn1cnc2ccc(C3CCc4cncn43)cc21 (racemic) [compound 23]	78	81	31
CCCCn1c(NC(=O)OC)nc2ccc(C3CCc4cncn43)cc21 (racemic) [compound 44]	66	66	10
c1cc2ncn(C3CC3)c2cc1C1CCc2cncn21 (racemic) [compound 41, (±)-1-cyclopropyl-6-(6,7-dihydro-5H-pyrrolo[1,2-c]imidazol-5-yl)-1H-benzimidazole dinitrate]	89	91	39
C=CCn1cnc2ccc(C3CCc4cncn43)cc21 (racemic) [compound 49]	81	90	13
c1cc2ncn(C3CCCCC3)c2cc1C1CCc2cncn21 (racemic) [compound 35]	77	92	22
CCCCn1c(CC)nc2ccc(C3CCc4cncn43)cc21 (racemic) [compound 34]	80	12	21
CCn1cnc2ccc(C3CCc4cncn43)cc21 (racemic) [compound 39]	90	93	39
CCCn1cnc2ccc(C3CCc4cncn43)cc21 (racemic) [compound 33]	82	98	55
CC(C)n1cnc2ccc(C3CCc4cncn43)cc21 (racemic) [compound 42]	93	98	33
c1ccc(Cn2cnc3ccc(C4CCc5cncn54)cc32)cc1 (racemic) [compound 38]	42	80	7
